Earlier results, collected in patent publication US6366801B1, “Pharmaceutically enhanced low-energy radiosurgery” (Sirius Medicine, LLC, priority 1997, dated 2002).

Columns and labels:
lymphocytes = details: iodine with low-energy photons, lymphocytes (Santos Mello et al.)
brain tumors = details: low-energy x-rays and iodine, brain tumors in rabbits (Iwamoto et al.)
cells in vitro = details: iodine concentration of 50 mg/ml, cells in vitro (Dawson et al.)

For `II` [iodine], the dose enhancement (lymphocytes) is listed as “up to 3”, the dose enhancement (brain tumors) is listed as “about 30%” and the “effect on radiation damage to cells” value (cells in vitro) is listed as “radiation enhancement of cell damage”.
